In publication PMC5825229 (Molecular cell, 2017):
Changes are numbered by the printed parent chain.

Key:
Type in all cases: biochemical
[1] = molecular target: T1, human MCU and EMRE reconstituted in yeast mitochondria (HsMCU/EMRE) (Homo sapiens, UniProt Q8NE86); assay: aequorin Ca2+ uptake rate in isolated yeast mitochondria, Hill fit
T1 sequence (Q8NE86 51-351): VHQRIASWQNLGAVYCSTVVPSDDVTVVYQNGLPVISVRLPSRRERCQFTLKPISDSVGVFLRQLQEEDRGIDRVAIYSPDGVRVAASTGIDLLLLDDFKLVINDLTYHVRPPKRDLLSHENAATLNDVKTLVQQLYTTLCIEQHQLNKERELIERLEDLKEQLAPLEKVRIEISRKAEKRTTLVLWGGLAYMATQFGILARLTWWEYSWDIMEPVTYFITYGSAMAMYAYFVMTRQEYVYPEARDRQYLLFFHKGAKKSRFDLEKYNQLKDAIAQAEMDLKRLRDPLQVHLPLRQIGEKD
T1 sequence (Q9H4I9 53-107 partner): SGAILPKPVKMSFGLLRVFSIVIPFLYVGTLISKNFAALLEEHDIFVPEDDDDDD

[2] = molecular target: T2, human MCU and EMRE reconstituted in yeast mitochondria (HsMCU/EMRE) (Homo sapiens, UniProt Q8NE86, D261A); assay: aequorin peak Ca2+ in isolated yeast mitochondria, Hill fit
T2 sequence (Q8NE86 51-351 D261A): T1 sequence (Q8NE86 51-351) with D211A
T2 sequence (Q9H4I9 53-107 partner): T1 sequence (Q9H4I9 53-107 partner)

[3] = molecular target: T3, MCU (native mitochondrial calcium uniporter of HEK293T mitoplasts and HeLa cells) (Homo sapiens, UniProt Q8NE86); assay: whole-mitoplast patch clamp, HEK293T; settings: 1 mM bath Ca2+, -160 mV; bath (cytosolic) side, reversible
T3 sequence (Q8NE86 51-351): T1 sequence (Q8NE86 51-351)
T3 sequence (Q9H4I9 53-107 partner): T1 sequence (Q9H4I9 53-107 partner)

IC50 [1] [µM]	SMILES	IC50 [2] [µM]	% reduction of MCU Ca2+ current at 10 μM [3]
36 ± 0.2	Nc1ccc(NCCNCCO)c2c1C(=O)c1c(O)ccc(O)c1C2=O [impurity A]		
15 ± 1	NCCNc1ccc(NCCN)c2c1C(=O)c1ccncc1C2=O [pixantrone]	31.8 ± 6.5	

SMILES	IC50 [1] [µM]	IC50 [2] [µM]	% reduction of MCU Ca2+ current at 10 μM [3]
O=C1c2c(O)ccc(O)c2C(=O)c2c(NCCNCCO)ccc(NCCNCCO)c21 [mitoxantrone]	8.3 ± 0.9	10.7 ± 1.4	~ 85%
